# Peptide text beside a SMILES is read from it.
# Key:
# [1] = system: Human erythrocytes; experiment: Haemolysis assay using human blood; type: cell-based; details: red cells of human, 1 h
# Procedure: To determine the extent of haemolytic activity (the ability to lyse red blood cells) in test peptides, a haemolysis assay was conducted using human blood (BioIVT, West Sussex, UK). Human erythrocytes were exposed to a single fixed concentration or a range of concentrations as to determine the % haemolysis (fixed concentration) or the concentration at which 50% haemolysis occurred (HC50), respectively. Prior to the assay, whole human blood was repeatedly washed in phosphate buffered saline (PBS) under cooled conditions to remove the buffy coat, plasma and cell debris. Washed erythrocytes were diluted as to achieve 1×10^8 cells/mL in PBS. Prepared human erythrocyte samples were combined with peptide at a single fixed concentration of 128 μg/mL, or a range of concentrations (two-fold dilution series) from 1000-31.25 μg/mL. Positive and negative controls containing 2% (v/v) Triton X-100 and PBS alone, respectively, were also prepared. Samples were incubated at 37° C. for 1 hour and then centrifuged to collect intact erythrocytes. Haemoglobin release was determined by recording the optical density of the supernatant at 540 nm. Optical density values were transformed to a percentage of the positive control. Results were recorded as a percentage haemolysis at 128 μg/mL, or by plotting the percentage haemolysis versus concentration and extrapolating the HC50 using linear regression analysis (Table 2 above)
# The therapeutic index is a widely-accepted parameter to represent the specificity of antimicrobial peptides for prokaryotic versus eukaryotic cells. It is calculated by the ratio of hemolytic activity and antimicrobial activity (MIC) (Table 2 above); thus, larger values of therapeutic index indicate greater specificity for prokaryotic cells. With the peptides used in this study the inventors used the HC50/MIC ratio value to calculate the therapeutic index.
# [2] = system: Acinetobacter baumannii NCTC 13420; type: cell-based; details: NCTC 13420
# Procedure: (§1) Bacterial strains were acquired from the American Type Culture Collection (ATCC, Virginia, USA) and the National Collection of Type Cultures (NCTC, Public Health England, Salisbury, UK). Minimum Inhibitory Concentration (MIC) of peptides versus gram-negative strains-Acinetobacter baumannii NCTC 13420, and Pseudomonas aeruginosa ATCC 27853 and gram-positive strain Staphylococcus aureus ATCC 29213, were determined by broth microdilution as per the guidelines of the Clinical and Laboratory Standards Institute (“Methods for Dilution Antimicrobial Susceptibility Tests for Bacteria That Grow Aerobically”; Approved Standard-Ninth Edition. CLSI document M07-A9, 2012). Peptides were dissolved in sterile distilled water, which was also used as the drug-free vehicle control when determining peptide MICs. Prior to use in the MIC protocol, bacterial strains were grown on Mueller Hinton agar at 37° C. in an ambient atmosphere. […] A fixed inoculum of the test microorganism (5×10^5 cells/mL) is also added to the plate. The MIC is determined as the lowest concentration of compound that inhibits visible bacterial growth following incubation at 37° C. for 16-20 hours. A difference in MIC of two-fold between experimental replicates is considered to be within the normal variability of this protocol.
# [3] = system: Pseudomonas aeruginosa ATCC 27853; type: cell-based; details: ATCC 27853
# Procedure: as §1
# [4] = Peptide hydrophobicity by RP-HPLC retention; type: physicochemical; details: for tR (relative hydrophobicity by RP-HPLC): Zorbax SB-300 C8, 0.25% B/min from 10% B, 0.3 ml/min, 30° C.
# Excerpt: Retention behavior in RP-HPLC is an excellent method to represent overall peptide hydrophobicity. Retention times of peptides are highly sensitive to the conformational status of the peptides upon interaction with the hydrophobic environment of the column matrix^17,26. The non-polar faces of amphipathic alpha-helical and amphipathic cyclic beta-sheet peptides represent a preferred binding domain for interaction with the hydrophobic matrix of the reversed-phase column^27. In this study, the observed peptide hydrophobicity was determined by RP-HPLC retention time as described below and are relative hydrophobicities because they are dependent on the TFA concentration and organic solvent in the mobile phase, gradient rate, temperature, flow rate and the column used. Analytical Purification by Reversed-phase Chromatography: Analytical RP-HPLC: Column: Zorbax SB-300 C8 (150×2.1 mm ID; 5-μm particle size; 300 Å pore size). Conditions: linear AB gradient (0.25% B/min from 10% B) at a flow-rate of 0.3 ml/min, where Eluent A is 0.2% aq. TFA and Eluent B is 0.18% TFA in acetonitrile; 30° C.
SMILES,Antimicrobial Activity MIC A. baumannii NCTC13420 [2] [µg/mL],P. aeruginosa ATCC27853 MIC [3] [µg/mL],tR (relative hydrophobicity by RP-HPLC) [4] [min],ΔtR (Lys) ([4]; retention time difference to the Lys13/Lys16 parent peptide) [min],Haemolysis HC50 [1] [µg/mL]
CC(=O)N[C@H](CCCCN)C(=O)N[C@H](CC(C)C)C(=O)N[C@H](CO)C(=O)N[C@H](CO)C(=O)N[C@H](CC(C)C)C(=O)N[C@H](CC(C)C)C(=O)N[C@H](CO)C(=O)N[C@H](CCCCN)C(=O)N[C@H](CC(C)C)C(=O)N[C@H](CCCCN)C(=O)N[C@H](CCCCN)C(=O)N[C@H](C)C(=O)N[C@H](CCCCN)C(=O)N[C@H](CCCCN)C(=O)N[C@H](CCCCN)C(=O)N[C@H](CCCCN)C(=O)N[C@H](CC(C)C)C(=O)N[C@H](CCCCN)C(=O)N[C@H](CCCCN)C(=O)N[C@H](CC(C)C)C(=O)N[C@H](CC(C)C)C(=O)N[C@H](CCCCN)C(=O)N[C@H](C)C(=O)N[C@H](CC(C)C)C(=O)N[C@H](CO)C(=O)N[C@H](CO)C(N)=O [compound 5] (HELM PEPTIDE1{[ac].[dK].[dL].[dS].[dS].[dL].[dL].[dS].[dK].[dL].[dK].[dK].[dA].[dK].[dK].[dK].[dK].[dL].[dK].[dK].[dL].[dL].[dK].[dA].[dL].[dS].[dS].[am]}$$$$V2.0),1,2,,,669
CC(=O)N[C@H](C)C(=O)N[C@H](CC(C)C)C(=O)N[C@H](CO)C(=O)N[C@H](CO)C(=O)N[C@H](CC(C)C)C(=O)N[C@H](CC(C)C)C(=O)N[C@H](CO)C(=O)N[C@H](CCCCN)C(=O)N[C@H](CC(C)C)C(=O)N[C@H](CCCCN)C(=O)N[C@H](CCCCN)C(=O)N[C@H](C)C(=O)N[C@H](CCCCN)C(=O)N[C@H](CCCCN)C(=O)N[C@H](CCCCN)C(=O)N[C@H](CCCCN)C(=O)N[C@H](CC(C)C)C(=O)N[C@H](CCCCN)C(=O)N[C@H](CCCCN)C(=O)N[C@H](CC(C)C)C(=O)N[C@H](CC(C)C)C(=O)N[C@H](CCCCN)C(=O)N[C@H](C)C(=O)N[C@H](CC(C)C)C(=O)N[C@H](CO)C(=O)N[C@H](CO)C(N)=O [compound 10] (HELM PEPTIDE1{[ac].[dA].[dL].[dS].[dS].[dL].[dL].[dS].[dK].[dL].[dK].[dK].[dA].[dK].[dK].[dK].[dK].[dL].[dK].[dK].[dL].[dL].[dK].[dA].[dL].[dS].[dS].[am]}$$$$V2.0),2,2,,,>1000
CC(=O)N[C@H](C)C(=O)N[C@H](CC(C)C)C(=O)N[C@H](CCCCN)C(=O)N[C@H](CO)C(=O)N[C@H](CC(C)C)C(=O)N[C@H](CC(C)C)C(=O)N[C@H](CCCCN)C(=O)N[C@H](CCCCN)C(=O)N[C@H](CC(C)C)C(=O)N[C@H](CO)C(=O)N[C@H](CCCCN)C(=O)N[C@H](C)C(=O)N[C@H](CCCCN)C(=O)N[C@H](CCCCN)C(=O)N[C@H](CCCCN)C(=O)N[C@H](CCCCN)C(=O)N[C@H](CC(C)C)C(=O)N[C@H](CCCCN)C(=O)N[C@H](CCCCN)C(=O)N[C@H](CC(C)C)C(=O)N[C@H](CC(C)C)C(=O)N[C@H](CCCCN)C(=O)N[C@H](C)C(=O)N[C@H](CC(C)C)C(=O)N[C@H](CO)C(=O)N[C@H](CO)C(N)=O [compound 23] (HELM PEPTIDE1{[ac].[dA].[dL].[dK].[dS].[dL].[dL].[dK].[dK].[dL].[dS].[dK].[dA].[dK].[dK].[dK].[dK].[dL].[dK].[dK].[dL].[dL].[dK].[dA].[dL].[dS].[dS].[am]}$$$$V2.0),2,2,,,175
CC(=O)N[C@H](CCCCN)C(=O)N[C@H](CC(C)C)C(=O)N[C@H](CCCCN)C(=O)N[C@H](CO)C(=O)N[C@H](CC(C)C)C(=O)N[C@H](CC(C)C)C(=O)N[C@H](CCCCN)C(=O)N[C@H](CO)C(=O)N[C@H](CC(C)C)C(=O)N[C@H](CO)C(=O)N[C@H](CCCCN)C(=O)N[C@H](C)C(=O)N[C@H](CCCCN)C(=O)N[C@H](CCCCN)C(=O)N[C@H](CCCCN)C(=O)N[C@H](CCCCN)C(=O)N[C@H](CC(C)C)C(=O)N[C@H](CCCCN)C(=O)N[C@H](CO)C(=O)N[C@H](CC(C)C)C(=O)N[C@H](CC(C)C)C(=O)N[C@H](CCCCN)C(=O)N[C@H](C)C(=O)N[C@H](CC(C)C)C(=O)N[C@H](CO)C(=O)N[C@H](CCCCN)C(N)=O [compound 26] (HELM PEPTIDE1{[ac].[dK].[dL].[dK].[dS].[dL].[dL].[dK].[dS].[dL].[dS].[dK].[dA].[dK].[dK].[dK].[dK].[dL].[dK].[dS].[dL].[dL].[dK].[dA].[dL].[dS].[dK].[am]}$$$$V2.0),1,2,,,>1000

# Continued, in another order:
Antimicrobial Activity MIC A. baumannii NCTC13420 [2] [µg/mL],P. aeruginosa ATCC27853 MIC [3] [µg/mL],tR (relative hydrophobicity by RP-HPLC) [4] [min],ΔtR (Lys) ([4]; retention time difference to the Lys13/Lys16 parent peptide) [min],SMILES,Haemolysis HC50 [1] [µg/mL]
2,4,94.51,,CC(=O)N[C@H](C)C(=O)N[C@H](CC(C)C)C(=O)N[C@H](CCCCN)C(=O)N[C@H](CCCCN)C(=O)N[C@H](CC(C)C)C(=O)N[C@H](CC(C)C)C(=O)N[C@H](CCCCN)C(=O)N[C@H](CCCCN)C(=O)N[C@H](CC(C)C)C(=O)N[C@H](CO)C(=O)N[C@H](CO)C(=O)N[C@H](C)C(=O)N[C@H](CCCCN)C(=O)N[C@H](CO)C(=O)N[C@H](CO)C(=O)N[C@H](CCCCN)C(=O)N[C@H](CC(C)C)C(=O)N[C@H](CO)C(=O)N[C@@H](C(=O)N[C@H](CC(C)C)C(=O)N[C@H](CC(C)C)C(=O)N[C@H](CCCCN)C(=O)N[C@H](CCCCN)C(=O)N[C@H](CC(C)C)C(=O)N[C@H](CCCCN)C(=O)N[C@H](CCCCN)C(N)=O)[C@H](C)O [compound 8] (HELM PEPTIDE1{[ac].[dA].[dL].[dK].[dK].[dL].[dL].[dK].[dK].[dL].[dS].[dS].[dA].[dK].[dS].[dS].[dK].[dL].[dS].[dT].[dL].[dL].[dK].[dK].[dL].[dK].[dK].[am]}$$$$V2.0),>1000
2,4,83.40,3.97,CC(=O)N[C@H](CCCCN)C(=O)N[C@H](CC(C)C)C(=O)N[C@H](CCCCN)C(=O)N[C@H](CCCCN)C(=O)N[C@H](CC(C)C)C(=O)N[C@H](CC(C)C)C(=O)N[C@H](CCCCN)C(=O)N[C@H](CCCCN)C(=O)N[C@H](CC(C)C)C(=O)N[C@H](CO)C(=O)N[C@H](CO)C(=O)N[C@H](C)C(=O)N[C@H](CCCN)C(=O)N[C@H](CO)C(=O)N[C@H](CO)C(=O)N[C@H](CCCN)C(=O)N[C@H](CC(C)C)C(=O)N[C@H](CO)C(=O)N[C@@H](C(=O)N[C@H](CC(C)C)C(=O)N[C@H](CC(C)C)C(=O)N[C@H](CCCCN)C(=O)N[C@H](CCCCN)C(=O)N[C@H](CC(C)C)C(=O)N[C@H](CCCCN)C(=O)N[C@H](CCCCN)C(N)=O)[C@H](C)O [compound 14] (HELM PEPTIDE1{[ac].[dK].[dL].[dK].[dK].[dL].[dL].[dK].[dK].[dL].[dS].[dS].[dA].[NCCC[C@@H](N[*:1])C(=O)[*:2]].[dS].[dS].[NCCC[C@@H](N[*:1])C(=O)[*:2]].[dL].[dS].[dT].[dL].[dL].[dK].[dK].[dL].[dK].[dK].[am]}$$$$V2.0),>1000
